Test results from patent US20100261723A1, “TRISUBSTITUTED PYRIMIDINE DERIVATIVES FOR THE TREATMENT OF PROLIFERATIVE DISEASES” (ASTRAZENECA AB, priority 2007, published 2010).
One block for each compound: values may come before it.

Target: T1, mTOR kinase (Homo sapiens, UniProt P42345)
T1 construct: FLAG; made in house
Experiment: In vitro mTOR kinase assay, Test (a)(i) (AlphaScreen)
Type: biochemical
Conditions: recombinant FLAG-tagged mTOR (1362-2549), ATP 20 μM; read-out: Test (a)(i) IC50
Protocol: (a)(i) In Vitro mTOR Kinase Assay
A C-terminal truncation of mTOR encompassing amino acid residues 1362 to 2549 of mTOR (EMBL Accession No. L34075) was stably expressed as a FLAG-tagged fusion in HEK293 cells as described by Vilella-Bach et al., […], 1999, 274, 4266-4272. The HEK293 FLAG-tagged mTOR (1362-2549) stable cell line was routinely maintained at 37° C. with 5% CO2 up to a confluency of 70-90% in Dulbecco's modified Eagle's growth medium (DMEM; Invitrogen Limited, Paisley, UK Catalogue No. 41966-029) containing 10% heat-inactivated foetal calf serum (FCS; Sigma, Poole, Dorset, UK, Catalogue No. F0392), 1% L-glutamine (Gibco, Catalogue No. 25030-024) and 2 mg/ml Geneticin (G418 sulfate; Invitrogen Limited, UK Catalogue No. 10131-027). Following expression in the mammalian HEK293 cell line, expressed protein was purified using the FLAG epitope tag using standard purification techniques.
A 30 μl mixture of recombinant purified mTOR enzyme, 1 μM biotinylated peptide substrate (Biotin-Ahx-[…]NH2; Bachem UK Ltd), ATP (20 μM) and a buffer solution [comprising Tris-HCl pH7.4 buffer (50 mM), EGTA (0.1 mM), bovine serum albumin (0.5 mg/mL), DTT (1.25 mM) and manganese chloride (10 mM)] was agitated at room temperature for 90 minutes.
These assay solutions were incubated for 2 hours at room temperature.
Phosphorylated biotinylated peptide is formed in situ as a result of mTOR mediated phosphorylation. The phosphorylated biotinylated peptide that is associated with AlphaScreen Streptavidin donor beads forms a complex with the p70 S6 Kinase (T389) 1A5 Monoclonal Antibody that is associated with Alphascreen Protein A acceptor beads. […] Accordingly, the presence of mTOR kinase activity results in an assay signal. In the presence of an mTOR kinase inhibitor, signal strength is reduced.

T1 sequence (P42345 1362-2549): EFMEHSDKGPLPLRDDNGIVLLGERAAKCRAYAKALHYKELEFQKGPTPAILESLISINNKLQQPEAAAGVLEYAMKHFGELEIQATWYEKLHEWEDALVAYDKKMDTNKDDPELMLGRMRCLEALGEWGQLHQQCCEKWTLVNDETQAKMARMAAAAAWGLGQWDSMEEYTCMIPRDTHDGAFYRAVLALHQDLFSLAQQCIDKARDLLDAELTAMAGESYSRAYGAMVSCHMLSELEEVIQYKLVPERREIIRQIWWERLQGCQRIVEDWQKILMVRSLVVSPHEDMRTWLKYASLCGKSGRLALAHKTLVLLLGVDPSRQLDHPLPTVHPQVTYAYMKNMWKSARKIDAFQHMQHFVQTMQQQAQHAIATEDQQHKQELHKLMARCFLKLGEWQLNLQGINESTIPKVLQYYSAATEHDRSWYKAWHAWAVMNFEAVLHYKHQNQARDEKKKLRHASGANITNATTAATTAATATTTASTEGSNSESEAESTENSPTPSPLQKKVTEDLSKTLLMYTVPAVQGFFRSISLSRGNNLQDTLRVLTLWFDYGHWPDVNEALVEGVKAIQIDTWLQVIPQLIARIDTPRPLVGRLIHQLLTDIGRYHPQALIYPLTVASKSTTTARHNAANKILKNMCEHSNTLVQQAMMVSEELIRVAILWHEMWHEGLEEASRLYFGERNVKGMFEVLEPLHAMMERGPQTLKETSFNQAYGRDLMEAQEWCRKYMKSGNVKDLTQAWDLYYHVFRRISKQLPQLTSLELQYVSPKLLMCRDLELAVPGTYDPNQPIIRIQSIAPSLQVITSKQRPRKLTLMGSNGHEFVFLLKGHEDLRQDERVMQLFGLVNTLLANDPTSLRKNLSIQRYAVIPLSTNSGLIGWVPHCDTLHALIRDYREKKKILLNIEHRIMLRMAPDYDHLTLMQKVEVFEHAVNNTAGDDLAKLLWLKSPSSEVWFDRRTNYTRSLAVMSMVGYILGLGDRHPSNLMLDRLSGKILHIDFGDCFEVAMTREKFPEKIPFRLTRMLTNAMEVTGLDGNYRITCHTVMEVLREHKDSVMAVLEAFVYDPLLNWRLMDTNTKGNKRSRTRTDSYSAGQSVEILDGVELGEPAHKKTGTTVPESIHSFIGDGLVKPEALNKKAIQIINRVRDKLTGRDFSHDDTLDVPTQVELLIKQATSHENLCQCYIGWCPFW

SMILES: C[C@H]1COCCN1c1cc(CS(C)(=O)=O)nc(-c2ccc(NC(=O)c3ccno3)cc2)n1 [Example 2, N-[4-[4-[(3S)-3-Methylmorpholin-4-yl]-6-(methylsulfonylmethyl)pyrimidin-2-yl]phenyl]-1,2-oxazole-5-carboxamide]
IC50: 0.0909 µM

SMILES: C[C@H]1COCCN1c1cc(CS(C)(=O)=O)nc(-c2ccc(NC(=O)CO)cc2)n1 [Example 3, 2-Hydroxy-N-[4-[4-[(3S)-3-methylmorpholin-4-yl]-6-(methylsulfonylmethyl)pyrimidin-2-yl]phenyl]acetamide]
IC50: 0.238 µM

SMILES: CC(=O)Nc1ccc(-c2nc(CS(C)(=O)=O)cc(N3CCOCC3)n2)cc1 [Example 4, N-[4-[4-(Methylsulfonylmethyl)-6-morpholin-4-yl-pyrimidin-2-yl]phenyl]acetamide]
IC50: 0.93 µM

SMILES: CS(=O)(=O)Cc1cc(N2CCOCC2)nc(-c2ccc(NC(=O)c3ccccc3)cc2)n1 [Example 4a, N-[4-[4-(methylsulfonylmethyl)-6-morpholin-4-yl-pyrimidin-2-yl]phenyl]benzamide]
IC50: 15.3 µM

SMILES: CCC(=O)Nc1ccc(-c2nc(CS(C)(=O)=O)cc(N3CCOCC3)n2)cc1 [Example 5a, N-[4-[4-(methylsulfonylmethyl)-6-morpholin-4-yl-pyrimidin-2-yl]phenyl]propanamide]
IC50: 0.648 µM

SMILES: CS(=O)(=O)Cc1cc(N2CCOCC2)nc(-c2ccc(NC(=O)CCC3CC3)cc2)n1 [Example 5aa, 3-cyclopropyl-N-[4-[4-(methylsulfonylmethyl)-6-morpholin-4-yl-pyrimidin-2-yl]phenyl]propanamide]
IC50: 4.99 µM

SMILES: CC(=O)NCCC(=O)Nc1ccc(-c2nc(CS(C)(=O)=O)cc(N3CCOCC3)n2)cc1 [Example 5ad, 3-acetamido-N-[4-[4-(methylsulfonylmethyl)-6-morpholin-4-yl-pyrimidin-2-yl]phenyl]propanamide]
IC50: 3.99 µM

SMILES: Cc1cc(C(=O)Nc2ccc(-c3nc(CS(C)(=O)=O)cc(N4CCOCC4)n3)cc2)n(C)n1 [Example 5af, 2,5-dimethyl-N-[4-[4-(methylsulfonylmethyl)-6-morpholin-4-yl-pyrimidin-2-yl]phenyl]pyrazole-3-carboxamide]
IC50: 10 µM

SMILES: CS(=O)(=O)Cc1cc(N2CCOCC2)nc(-c2ccc(NC(=O)CCc3c[nH]cn3)cc2)n1 [Example 5ah, 3-(1H-imidazol-4-yl)-N-[4[4-(methylsulfonylmethyl)-6-morpholin-4-yl-pyrimidin-2-yl]phenyl]propanamide]
IC50: 2.75 µM

SMILES: CS(=O)(=O)Cc1cc(N2CCOCC2)nc(-c2ccc(NC(=O)Cc3ccco3)cc2)n1 [Example 5ai, 2-(2-furyl)-N-[4-[4-(methylsulfonylmethyl)-6-morpholin-4-yl-pyrimidin-2-yl]phenyl]acetamide]
IC50: 1.64 µM

SMILES: CC(C)(C(N)=O)C(=O)Nc1ccc(-c2nc(CS(C)(=O)=O)cc(N3CCOCC3)n2)cc1 [Example 5al, 2,2-dimethyl-N′-[4-[4-(methylsulfonylmethyl)-6-morpholin-4-yl-pyrimidin-2-yl]phenyl]propanediamide]
IC50: 3.96 µM

SMILES: Cc1ccn(CC(=O)Nc2ccc(-c3nc(CS(C)(=O)=O)cc(N4CCOCC4)n3)cc2)n1 [Example 5an, 2-(3-methylpyrazol-1-yl)-N-[4-[4-(methylsulfonylmethyl)-6-morpholin-4-yl-pyrimidin-2-yl]phenyl]acetamide]
IC50: 29.7 µM

SMILES: CS(=O)(=O)Cc1cc(N2CCOCC2)nc(-c2ccc(NC(=O)c3cncs3)cc2)n1 [Example 5ao, N-[4-[4-(methylsulfonylmethyl)-6-morpholin-4-yl-pyrimidin-2-yl]phenyl]-1,3-thiazole-5-carboxamide]
IC50: 0.552 µM

SMILES: CS(=O)(=O)Cc1cc(N2CCOCC2)nc(-c2ccc(NC(=O)CC(F)(F)F)cc2)n1 [Example 5aq, 3,3,3-trifluoro-N-[4-[4-(methylsulfonylmethyl)-6-morpholin-4-yl-pyrimidin-2-yl]phenyl]propanamide]
IC50: 0.609 µM

SMILES: CS(=O)(=O)Cc1cc(N2CCOCC2)nc(-c2ccc(NC(=O)C(F)F)cc2)n1 [Example 5ar, 2,2-difluoro-N-[4-[4-(methylsulfonylmethyl)-6-morpholin-4-yl-pyrimidin-2-yl]phenyl]acetamide]
IC50: 1.07 µM

SMILES: CS(=O)(=O)Cc1cc(N2CCOCC2)nc(-c2ccc(NC(=O)c3csnn3)cc2)n1 [Example 5as, N-[4-[4-(methylsulfonylmethyl)-6-morpholin-4-yl-pyrimidin-2-yl]phenyl]thiadiazole-4-carboxamide]
IC50: 0.36 µM

Further compounds by falling IC50, results first:

IC50: 32.6 µM
SMILES: CO[C@H](C)C(=O)Nc1ccc(-c2nc(CS(C)(=O)=O)cc(N3CCOCC3)n2)cc1 [Example 5ap, (2R)-2-methoxy-N-[4-[4-(methylsulfonylmethyl)-6-morpholin-4-yl-pyrimidin-2-yl]phenyl]propanamide]

IC50: 9.7 µM
SMILES: CS(=O)(=O)Cc1cc(N2CCOCC2)nc(-c2ccc(NC(=O)CN3CCCC3=O)cc2)n1 [Example 5aj, N-[4-[4-(methylsulfonylmethyl)-6-morpholin-4-yl-pyrimidin-2-yl]phenyl]-2-(2-oxopyrrolidin-1-yl)acetamide]

IC50: 9.1 µM
SMILES: CS(=O)(=O)Cc1cc(N2CCOCC2)nc(-c2ccc(NC(=O)CN3CCOCC3)cc2)n1 [Example 5am, N-[4-[4-(methylsulfonylmethyl)-6-morpholin-4-yl-pyrimidin-2-yl]phenyl]-2-morpholin-4-yl-acetamide]

IC50: 7.79 µM
SMILES: CS(=O)(=O)Cc1cc(N2CCOCC2)nc(-c2ccc(NC(=O)Cc3ncccn3)cc2)n1 [Example 5ak, N-[4-[4-(methylsulfonylmethyl)-6-morpholin-4-yl-pyrimidin-2-yl]phenyl]-2-pyrimidin-2-yl-acetamide]

IC50: 6.59 µM
SMILES: CS(=O)(=O)Cc1cc(N2CCOCC2)nc(-c2ccc(NC(=O)C3(C(N)=O)CC3)cc2)n1 [Example 5ab, N′-[4-[4-(methylsulfonylmethyl)-6-morpholin-4-yl-pyrimidin-2-yl]phenyl]cyclopropane-1,1-dicarboxamide]

IC50: 5.38 µM
SMILES: CS(=O)(=O)Cc1cc(N2CCOCC2)nc(-c2ccc(NC(=O)C3CCOCC3)cc2)n1 [Example 5ac, N-[4-[4-(methylsulfonylmethyl)-6-morpholin-4-yl-pyrimidin-2-yl]phenyl]oxane-4-carboxamide]

IC50: 2.76 µM
SMILES: CS(=O)(=O)Cc1cc(N2CCOCC2)nc(-c2ccc(NC(=O)C3=COCCC3)cc2)n1 [Example 5ag, N-[4-[4-(methylsulfonylmethyl)-6-morpholin-4-yl-pyrimidin-2-yl]phenyl]-5,6-dihydro-4H-pyran-3-carboxamide]

IC50: 1.81 µM
SMILES: CS(=O)(=O)Cc1cc(N2CCOCC2)nc(-c2ccc(NC(=O)c3cc[nH]n3)cc2)n1 [Example 5ae, N-[4-[4-(methylsulfonylmethyl)-6-morpholin-4-yl-pyrimidin-2-yl]phenyl]-1H-pyrazole-3-carboxamide]

IC50: 1.17 µM
SMILES: CS(=O)(=O)Cc1cc(N2CCOCC2)nc(-c2ccc(NC(=O)C3CCC3)cc2)n1 [Example 5, N-[4-[4-(Methylsulfonylmethyl)-6-morpholin-4-yl-pyrimidin-2-yl]phenyl]cyclobutanecarboxamide]

IC50: 0.164 µM
SMILES: CC(=O)Nc1ccc(-c2nc(CS(C)(=O)=O)cc(N3CCOCC3)n2)cc1CO [Example 1, N-[2-(Hydroxymethyl)-4-[4-(methylsulfonylmethyl)-6-morpholin-4-yl-pyrimidin-2-yl]phenyl]acetamide]
